# Key:
# Experiment in all cases: biochemical
# Set-up in all cases: KINOMEscan competition binding assay, kinase captured on immobilized ligand, per cent of DMSO control
# Details in all cases: read-out: % Ctrl
# [1] = molecular target: TYRO3 (Homo sapiens, UniProt Q06418)
# Procedure: (§1) Competition binding assays were performed by DiscoverX (Freemont, CA, USA). […] S-Score^35 = (number of non-mutant kinases with %Ctrl < 35)/(number of non-mutant kinases tested). […] Kds are calculated […] by measuring the amount of kinase captured on the solid support as a function of the test compound concentration (n = 2, mean ± range).
# [2] = molecular target: T1, TIE2 (Homo sapiens, UniProt Q02763)
# T1 construct: gene TEK
# Procedure: as §1
# [3] = molecular target: TSSK1B (Homo sapiens, UniProt Q9BXA7)
# Procedure: as §1
# [4] = molecular target: T2, YANK3 (Homo sapiens, UniProt Q86UX6)
# T2 construct: gene STK32C
# Procedure: as §1
# [5] = molecular target: TTK (Homo sapiens, UniProt P33981)
# Procedure: as §1
# [6] = molecular target: T3, YSK1 (Homo sapiens, UniProt O00506)
# T3 construct: gene STK25
# Procedure: as §1
# [7] = molecular target: ULK1 (Homo sapiens, UniProt O75385)
# Procedure: as §1
# [8] = molecular target: ZAP70 (Homo sapiens, UniProt P43403)
# Procedure: as §1
# [9] = molecular target: TXK (Homo sapiens, UniProt P42681)
# Procedure: as §1
# [10] = molecular target: ULK3 (Homo sapiens, UniProt Q6PHR2)
# Procedure: as §1
# [11] = molecular target: WEE2 (Homo sapiens, UniProt P0C1S8)
# Procedure: as §1
# [12] = molecular target: T4, TRKB (Homo sapiens, UniProt Q16620)
# T4 construct: gene NTRK2
# Procedure: as §1
# [13] = molecular target: T5, YANK2 (Homo sapiens, UniProt Q9NY57)
# T5 construct: gene STK32B
# Procedure: as §1
# [14] = molecular target: T6, YES (Homo sapiens, UniProt P07947)
# T6 construct: gene YES1
# Procedure: as §1
# [15] = molecular target: T7, YANK1 (Homo sapiens, UniProt Q8WU08)
# T7 construct: gene STK32A
# Procedure: as §1
# [16] = molecular target: T8, VEGFR2 (Homo sapiens, UniProt P35968)
# T8 construct: gene KDR
# Procedure: as §1
# [17] = molecular target: TNK1 (Homo sapiens, UniProt Q13470)
# Procedure: as §1
# [18] = molecular target: WNK3 (Homo sapiens, UniProt Q9BYP7)
# Procedure: as §1
# [19] = molecular target: TNIK (Homo sapiens, UniProt Q9UKE5)
# Procedure: as §1
# [20] = molecular target: TLK2 (Homo sapiens, UniProt Q86UE8)
# Procedure: as §1
# [21] = molecular target: T9, ZAK (Homo sapiens, UniProt Q9NYL2)
# T9 construct: gene MAP3K20
# Procedure: as §1
# [22] = molecular target: T10, YSK4 (Homo sapiens, UniProt Q56UN5)
# T10 construct: gene MAP3K19
# Procedure: as §1
# [23] = molecular target: T11, TRKA (Homo sapiens, UniProt P04629)
# T11 construct: gene NTRK1
# Procedure: as §1
# [24] = molecular target: ULK2 (Homo sapiens, UniProt Q8IYT8)
# Procedure: as §1
# [25] = molecular target: T12, TRKC (Homo sapiens, UniProt Q16288)
# T12 construct: gene NTRK3
# Procedure: as §1
# [26] = molecular target: TRPM6 (Homo sapiens, UniProt Q9BX84)
# Procedure: as §1
# [27] = molecular target: TNNI3K (Homo sapiens, UniProt Q59H18)
# Procedure: as §1
# [28] = molecular target: T13, TYK2(JH2domain-pseudokinase) (Homo sapiens, UniProt P29597)
# T13 construct: JH2domain-pseudokinase
# Procedure: as §1
# [29] = molecular target: WNK1 (Homo sapiens, UniProt Q9H4A3)
# Procedure: as §1
# [30] = molecular target: VRK2 (Homo sapiens, UniProt Q86Y07)
# Procedure: as §1
# [31] = molecular target: T14, TYK2(JH1domain-catalytic) (Homo sapiens, UniProt P29597)
# T14 construct: JH1domain-catalytic
# Procedure: as §1
# [32] = molecular target: TNK2 (Homo sapiens, UniProt Q07912)
# Procedure: as §1
# [33] = molecular target: TLK1 (Homo sapiens, UniProt Q9UKI8)
# Procedure: as §1
# [34] = molecular target: WEE1 (Homo sapiens, UniProt P30291)
# Procedure: as §1
# TNIK, sequence (Q9UKE5 whole entry): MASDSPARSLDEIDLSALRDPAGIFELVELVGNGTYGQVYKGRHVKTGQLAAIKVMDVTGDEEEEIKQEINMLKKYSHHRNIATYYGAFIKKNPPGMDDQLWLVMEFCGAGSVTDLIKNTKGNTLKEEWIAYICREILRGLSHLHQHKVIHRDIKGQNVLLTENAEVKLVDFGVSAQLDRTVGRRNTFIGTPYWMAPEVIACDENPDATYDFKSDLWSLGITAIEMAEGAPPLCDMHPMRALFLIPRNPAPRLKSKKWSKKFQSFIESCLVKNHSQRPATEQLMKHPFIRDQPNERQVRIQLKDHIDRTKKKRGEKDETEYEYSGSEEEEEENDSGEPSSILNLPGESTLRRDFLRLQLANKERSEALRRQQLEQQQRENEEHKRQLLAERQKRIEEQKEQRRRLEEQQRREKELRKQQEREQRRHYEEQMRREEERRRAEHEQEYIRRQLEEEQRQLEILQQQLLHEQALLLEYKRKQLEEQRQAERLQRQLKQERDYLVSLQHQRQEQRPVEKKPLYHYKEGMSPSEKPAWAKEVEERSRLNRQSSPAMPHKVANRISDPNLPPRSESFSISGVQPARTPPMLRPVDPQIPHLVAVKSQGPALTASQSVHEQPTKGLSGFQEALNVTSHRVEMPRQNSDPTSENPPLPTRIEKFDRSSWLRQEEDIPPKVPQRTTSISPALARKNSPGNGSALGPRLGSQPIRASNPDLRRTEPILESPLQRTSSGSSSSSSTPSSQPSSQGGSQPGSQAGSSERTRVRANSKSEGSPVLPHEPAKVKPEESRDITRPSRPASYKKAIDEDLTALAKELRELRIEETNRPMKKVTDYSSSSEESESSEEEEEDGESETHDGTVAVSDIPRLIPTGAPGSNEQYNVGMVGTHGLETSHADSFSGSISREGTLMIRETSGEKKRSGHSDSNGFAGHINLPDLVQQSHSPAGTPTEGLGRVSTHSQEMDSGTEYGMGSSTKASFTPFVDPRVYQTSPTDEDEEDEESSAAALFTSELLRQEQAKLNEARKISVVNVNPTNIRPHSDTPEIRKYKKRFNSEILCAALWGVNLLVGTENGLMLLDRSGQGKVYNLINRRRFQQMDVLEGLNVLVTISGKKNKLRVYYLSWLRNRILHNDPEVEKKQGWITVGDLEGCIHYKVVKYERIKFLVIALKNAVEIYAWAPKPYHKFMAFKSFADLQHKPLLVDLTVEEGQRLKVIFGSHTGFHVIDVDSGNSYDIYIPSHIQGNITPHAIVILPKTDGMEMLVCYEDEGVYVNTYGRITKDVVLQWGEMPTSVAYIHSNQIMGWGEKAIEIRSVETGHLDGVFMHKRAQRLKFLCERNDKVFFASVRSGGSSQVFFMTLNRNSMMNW
# ULK3, sequence (Q6PHR2 whole entry): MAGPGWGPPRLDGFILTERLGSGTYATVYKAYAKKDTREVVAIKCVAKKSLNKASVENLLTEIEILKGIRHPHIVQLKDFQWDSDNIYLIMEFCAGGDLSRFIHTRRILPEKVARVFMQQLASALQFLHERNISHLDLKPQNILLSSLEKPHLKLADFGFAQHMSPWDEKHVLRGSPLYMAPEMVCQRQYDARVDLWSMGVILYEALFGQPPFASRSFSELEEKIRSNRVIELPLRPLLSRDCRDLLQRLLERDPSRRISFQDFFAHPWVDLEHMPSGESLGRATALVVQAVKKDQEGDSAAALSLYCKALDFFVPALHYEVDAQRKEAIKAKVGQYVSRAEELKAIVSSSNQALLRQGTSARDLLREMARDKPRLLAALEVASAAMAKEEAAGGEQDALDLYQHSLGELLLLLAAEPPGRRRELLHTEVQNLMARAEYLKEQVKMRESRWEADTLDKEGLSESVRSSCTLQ
# TNK2, sequence (Q07912 whole entry): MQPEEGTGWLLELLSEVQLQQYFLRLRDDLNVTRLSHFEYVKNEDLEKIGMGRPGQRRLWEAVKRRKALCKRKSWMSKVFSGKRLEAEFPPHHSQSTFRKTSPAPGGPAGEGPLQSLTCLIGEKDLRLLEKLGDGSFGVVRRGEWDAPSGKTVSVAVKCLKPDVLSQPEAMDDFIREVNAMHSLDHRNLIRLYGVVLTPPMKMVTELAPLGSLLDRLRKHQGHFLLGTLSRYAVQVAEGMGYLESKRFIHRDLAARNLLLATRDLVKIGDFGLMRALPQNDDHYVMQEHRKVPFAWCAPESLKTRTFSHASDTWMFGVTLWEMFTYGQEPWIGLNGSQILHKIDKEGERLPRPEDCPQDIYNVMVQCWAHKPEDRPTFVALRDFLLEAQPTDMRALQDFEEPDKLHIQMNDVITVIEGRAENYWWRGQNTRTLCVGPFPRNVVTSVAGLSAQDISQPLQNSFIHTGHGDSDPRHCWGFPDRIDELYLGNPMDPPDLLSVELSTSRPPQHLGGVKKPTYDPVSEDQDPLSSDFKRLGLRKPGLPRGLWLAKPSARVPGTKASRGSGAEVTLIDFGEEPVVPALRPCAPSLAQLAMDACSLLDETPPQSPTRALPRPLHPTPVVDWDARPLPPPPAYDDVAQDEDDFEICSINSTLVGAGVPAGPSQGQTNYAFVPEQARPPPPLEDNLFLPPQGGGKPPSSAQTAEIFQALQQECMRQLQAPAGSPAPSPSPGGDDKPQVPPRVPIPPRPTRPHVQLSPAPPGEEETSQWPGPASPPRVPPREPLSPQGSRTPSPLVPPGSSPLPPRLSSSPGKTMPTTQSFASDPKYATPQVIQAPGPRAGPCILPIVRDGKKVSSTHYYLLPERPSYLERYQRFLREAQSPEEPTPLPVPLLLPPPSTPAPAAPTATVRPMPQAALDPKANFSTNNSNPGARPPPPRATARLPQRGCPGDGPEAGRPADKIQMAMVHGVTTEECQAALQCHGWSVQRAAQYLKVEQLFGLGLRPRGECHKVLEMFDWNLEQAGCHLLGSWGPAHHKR
# WNK3, sequence (Q9BYP7 whole entry): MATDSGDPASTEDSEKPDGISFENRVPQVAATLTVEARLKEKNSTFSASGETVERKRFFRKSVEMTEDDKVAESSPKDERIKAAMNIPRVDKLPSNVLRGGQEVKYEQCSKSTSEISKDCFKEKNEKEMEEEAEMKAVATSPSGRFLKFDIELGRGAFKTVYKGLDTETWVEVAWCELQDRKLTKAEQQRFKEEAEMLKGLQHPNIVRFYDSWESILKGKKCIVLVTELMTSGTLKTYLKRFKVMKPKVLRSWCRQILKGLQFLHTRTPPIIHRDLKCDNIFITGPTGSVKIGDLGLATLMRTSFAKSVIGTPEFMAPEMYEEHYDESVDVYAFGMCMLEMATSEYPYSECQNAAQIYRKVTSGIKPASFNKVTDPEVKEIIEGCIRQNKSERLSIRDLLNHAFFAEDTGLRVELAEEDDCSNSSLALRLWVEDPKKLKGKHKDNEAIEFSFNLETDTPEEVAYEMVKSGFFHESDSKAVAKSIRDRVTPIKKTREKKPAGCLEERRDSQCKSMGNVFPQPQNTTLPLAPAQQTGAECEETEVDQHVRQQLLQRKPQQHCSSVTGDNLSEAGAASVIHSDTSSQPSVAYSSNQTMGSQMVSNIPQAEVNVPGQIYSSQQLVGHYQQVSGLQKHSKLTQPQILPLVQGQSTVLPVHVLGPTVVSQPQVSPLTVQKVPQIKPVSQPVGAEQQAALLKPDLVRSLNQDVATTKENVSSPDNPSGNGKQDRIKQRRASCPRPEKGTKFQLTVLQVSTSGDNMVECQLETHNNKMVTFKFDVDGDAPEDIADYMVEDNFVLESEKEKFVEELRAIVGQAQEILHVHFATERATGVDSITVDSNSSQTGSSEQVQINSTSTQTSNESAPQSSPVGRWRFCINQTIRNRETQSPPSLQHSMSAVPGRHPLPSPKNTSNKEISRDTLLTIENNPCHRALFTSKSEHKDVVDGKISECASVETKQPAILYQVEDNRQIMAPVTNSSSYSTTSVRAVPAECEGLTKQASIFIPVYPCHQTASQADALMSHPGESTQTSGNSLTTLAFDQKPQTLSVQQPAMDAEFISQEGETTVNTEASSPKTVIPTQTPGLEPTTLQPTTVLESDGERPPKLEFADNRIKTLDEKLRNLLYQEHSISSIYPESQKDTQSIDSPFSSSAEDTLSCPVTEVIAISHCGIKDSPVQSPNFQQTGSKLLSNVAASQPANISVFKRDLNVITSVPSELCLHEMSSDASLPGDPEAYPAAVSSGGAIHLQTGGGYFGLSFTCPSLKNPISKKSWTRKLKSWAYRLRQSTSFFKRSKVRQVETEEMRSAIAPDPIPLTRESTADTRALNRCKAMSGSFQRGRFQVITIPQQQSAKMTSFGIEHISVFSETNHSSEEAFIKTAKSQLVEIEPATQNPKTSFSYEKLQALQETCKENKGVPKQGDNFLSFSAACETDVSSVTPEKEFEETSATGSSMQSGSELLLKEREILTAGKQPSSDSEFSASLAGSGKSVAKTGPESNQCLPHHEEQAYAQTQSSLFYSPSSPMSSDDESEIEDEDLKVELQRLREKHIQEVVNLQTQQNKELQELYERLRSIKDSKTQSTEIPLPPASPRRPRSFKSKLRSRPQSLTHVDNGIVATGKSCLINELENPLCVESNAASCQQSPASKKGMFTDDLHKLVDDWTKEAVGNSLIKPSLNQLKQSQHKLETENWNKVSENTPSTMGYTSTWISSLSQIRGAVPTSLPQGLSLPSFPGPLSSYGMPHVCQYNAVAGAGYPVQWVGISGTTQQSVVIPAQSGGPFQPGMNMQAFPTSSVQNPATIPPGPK
# T5 sequence (Q9NY57 whole entry): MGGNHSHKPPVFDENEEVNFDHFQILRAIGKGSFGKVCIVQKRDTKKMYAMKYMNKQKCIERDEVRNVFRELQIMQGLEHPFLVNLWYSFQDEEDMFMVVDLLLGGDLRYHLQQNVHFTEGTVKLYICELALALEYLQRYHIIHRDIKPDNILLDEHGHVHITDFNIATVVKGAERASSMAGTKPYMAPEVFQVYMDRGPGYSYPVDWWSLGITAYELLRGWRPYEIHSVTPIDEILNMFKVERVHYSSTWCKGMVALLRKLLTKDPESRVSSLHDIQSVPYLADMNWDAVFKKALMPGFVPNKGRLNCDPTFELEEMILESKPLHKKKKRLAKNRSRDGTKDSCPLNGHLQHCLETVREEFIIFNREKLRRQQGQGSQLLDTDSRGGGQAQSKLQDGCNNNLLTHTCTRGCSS
smiles,measurement,setting,value
"COc1cc(O)c2c(c1)OC(O)(c1ccc(OCc3ccccc3)cc1)CC2=O (stereo not shown) [6E11, 2-(4-(benzyloxy)phenyl)-2,5-dihydroxy-7-methoxychroman-4-one]",percent of control binding at 10 µM,[1],93%
same,percent of control binding at 10 µM,[2],100%
same,percent of control binding at 10 µM,[3],83%
same,percent of control binding at 10 µM,[4],72%
same,percent of control binding at 10 µM,[5],99%
same,percent of control binding at 10 µM,[6],88%
same,percent of control binding at 10 µM,[7],79%
same,percent of control binding at 10 µM,[8],100%
same,percent of control binding at 10 µM,[9],100%
same,percent of control binding at 10 µM,[10],71%
same,percent of control binding at 10 µM,[11],88%
same,percent of control binding at 10 µM,[12],100%
same,percent of control binding at 10 µM,[13],84%
same,percent of control binding at 10 µM,[14],87%
same,percent of control binding at 10 µM,[15],60%
same,percent of control binding at 10 µM,[16],82%
same,percent of control binding at 10 µM,[17],88%
same,percent of control binding at 10 µM,[18],50%
same,percent of control binding at 10 µM,[19],85%
same,percent of control binding at 10 µM,[20],83%
same,percent of control binding at 10 µM,[21],100%
same,percent of control binding at 10 µM,[22],81%
same,percent of control binding at 10 µM,[23],93%
same,percent of control binding at 10 µM,[24],98%
same,percent of control binding at 10 µM,[25],100%
same,percent of control binding at 10 µM,[26],60%
same,percent of control binding at 10 µM,[27],98%
same,percent of control binding at 10 µM,[28],86%
same,percent of control binding at 10 µM,[29],61%
same,percent of control binding at 10 µM,[30],58%
same,percent of control binding at 10 µM,[31],97%
same,percent of control binding at 10 µM,[32],92%
same,percent of control binding at 10 µM,[33],100%
same,percent of control binding at 10 µM,[34],82%
